Structures can show the parent of a compound that is named as a salt.
What was measured:
Type in all cases: in vivo, mouse
[1] = system: ST162 patient-derived xenograft; test: Xenograft Tumor Model ST162; conditions: ST162, LMS, comparator day 39, p-value <0.001
Procedure: (§1) For all “ST” models (encompassing RMS and LMS), patient-derived xenografts are established from viable human tumor tissue and are serially passaged in animals a limited number of times to maintain tumor heterogeneity. In subcutaneous models, athymic nude mice (Crl:NU(NCr)-Foxn1nu) or CB-17 SCID mice (CRL-CB17/Icr-Prkdcscid/IcrIcoCrl) are injected or implanted unilaterally into the flank with tumor fragments harvested from host animals, each implanted from a specific passage lot. For all studies, measure tumor growth and body weight twice per week beginning on the seventh day after implantation. When tumor size reaches 150-300 mm^3, randomize animals and group into groups of 4-7 animals. Prepare test compound in an appropriate vehicle (e.g. vehicle can be 20% Captisol® in sterile water) and administer subcutaneously for three consecutive days followed by a four day dosing holiday and repeat for a minimum of four weeks. Tumor response is determined by tumor volume measurement performed twice per week during the course of treatment.

[2] = system: CTG-0926 DSRCT patient-derived xenograft; test: Xenograft Tumor Model CTG-0926; conditions: comparator day 28, p-value <0.001
Procedure: (§2) The efficacy of 5-(5-(2-(3-aminopropoxy)-6-methoxyphenyl)-1H-pyrazol-3-ylamino)pyrazine-2-carbonitrile methanesulfonic acid monohydrate is measurable in vivo in mouse models of neuroblastomas and human pediatric and adult sarcomas. 5-(5-(2-(3-Aminopropoxy)-6-methoxyphenyl)-1H-pyrazol-3-ylamino)pyrazine-2-carbonitrile methanesulfonic acid monohydrate (10 mg/kg) can be administered subcutaneously to nude mice bearing either cell-derived xenografts (CDX) or patient-derived xenografts (PDX) of human rhabdomyosarcoma, desmoplastic small round cell tumor (DSRCT), osteosarcoma, and Ewing's sarcoma using a 3 day on, 4 day off b.i.d. dosing schedule. Tumor volume and body weight can be measured two times per week. Tumor-specific parameters can be evaluated by immumohistochemistry. […]
(§3) For all “ST” models (encompassing RMS and LMS), patient-derived xenografts are established from viable human tumor tissue and are serially passaged in animals a limited number of times to maintain tumor heterogeneity. […] Tumor response is determined by tumor volume measurement performed twice per week during the course of treatment.

[3] = system: ST0001 LMS patient-derived xenograft; test: Xenograft Tumor Model ST0001; conditions: comparator day 19, p-value 0.247
Procedure: as §1

[4] = system: CTG-0816 EWS patient-derived xenograft; test: Xenograft Tumor Model CTG-0816; conditions: comparator day 28, p-value 0.069
Procedure: as §2, §3

[5] = system: Liposarcoma xenograft models; test: Sarcoma xenograft models by tumor subtype: Liposarcoma; conditions: age of patients 36-74 years
[6] = system: CTG-0242 OS patient-derived xenograft; test: Xenograft Tumor Model CTG-0242; conditions: comparator day 28, p-value 0.012
Procedure: as §2, §3

[7] = system: CTG-1213 RMS patient-derived xenograft; test: Xenograft Tumor Model CTG-1213
Procedure: as §2, §3

[8] = system: CTG-1116 RMS patient-derived xenograft; test: Xenograft Tumor Model CTG-1116; conditions: comparator day 17, p-value <0.001
Procedure: as §2, §3

[9] = system: Calu-6 lung xenograft; test: Single Agent Efficacy Dosing, Calu-6 xenograft; conditions: Calu-6, 15 mg/kg SC, BID×5 rest 2 days ×3 cycles
Procedure: The ability of CHK1 inhibitors to effect tumor killing can be determined in vivo using the Calu-6 lung xenograft efficacy model. Calu-6 lung cancer cells (ATCC) are cultured as described above. Cells are harvested and washed twice with phosphate buffered saline and 1×10^6 cells (Calu-6) in growth media (without serum) are mixed with equal volume of BD Matrigel™ matrix (BD Bioscience, Franklin, NJ), then injected subcutaneously into the flank of nude mice (CD-1 nu/nu, from Charles River Labs, Wilmington, MA).

[10] = system: HT-29 colon tumor xenograft; test: Human Tumor Xenograft Models, with gemcitabine: HT-29
Procedure: The ability of CHK1 inhibitors to effect tumor killing can be determined in vivo using the Calu-6 lung and HT-29 colon tumor xenograft efficacy models. Calu-6 lung cancer cells (ATCC) are cultured in growth media (MEM w/ Earle's salts (Invitrogen) with L-glutamine (Gibco™) supplemented with 10% (v/v) heat inactivated FBS (Gibco™), 1×MEM non-essential amino acids (Gibco™), 1×sodium pyruvate (Gibco™)) and HT-29 colon cancer cells (ATCC) are cultured in growth media, (McCoy's 5A medium (Gibco™) supplemented with 10% FBS (Gibco™)) and expanded. Cells are harvested and washed twice with phosphate buffered saline and 5×10^6 cells (HT-29) or 1×10^6 cells (Calu-6) in growth media (without serum) are mixed with equal volume of BD Matrigel™ matrix (BD Bioscience, Franklin, NJ), then injected subcutaneously into the flank of nude mice (CD-1 nu/nu, from Charles River Labs, Wilmington, MA). At about day 16 after implant (150-200 mm^3), gemcitabine is formulated fresh in saline daily and administered to animals by intraperitoneal route at 60 mg/kg dose. […] Tumor response is determined by tumor volume measurement performed twice a week during the course of treatment. Tumor growth inhibition (TGI) is calculated as the percent reduction in mean tumor size of a compound treated group from the mean tumor size of the vehicle-treated control group.

Compound	% Regression [1] [%]	% Regression [2] [%]	% T/C [3] [%]	% T/C [4] [%]	Result of Treatment: Progressive Disease (models) [5]	% T/C [6] [%]	% T/C ([7]; comparator day 18, p-value 0.004) [%]	% Regression ([7]; comparator day 36, p-value <0.001) [%]	% T/C [8] [%]	growth inhibition compared with gemcitabine plus compound combination schedule [9]	tumor regression [9]	increase in tumor growth inhibition over gemcitabine alone ([10]; HT-29, combination with gemcitabine)	anti-tumor activity ([10]; HT-29, dosed alone and in combination with gemcitabine 60 mg/kg ip, compound iv +24 hours, Q3Dx4)
COc1cccc(OCCCN)c1-c1cc(Nc2cnc(C#N)cn2)n[nH]1 [Example 5, 5-(5-(2-(3-Aminopropoxy)-6-methoxyphenyl)-1H-pyrazol-3-ylamino)pyrazine-2-carbonitrile methanesulfonic acid monohydrate]	−93	−76	292	44	7/7 Progressive	6	18	−65	8	–	–	–	–
COc1cccc(OCCCN)c1-c1cc(Nc2cnc(C#N)cn2)n[nH]1 [Example 2, 5-(5-(2-(3-Aminopropoxy)-6-methoxyphenyl)-1H-pyrazol-3-ylamino)pyrazine-2-carbonitrile dihydrogen chloride salt]	–	–	–	–	–	–	–	–	–	superior growth inhibition	Complete tumor regression is rapid and durable	up to a six-fold increase	excellent dose dependent anti-tumor activity
